Source: ChEMBL document CHEMBL1132734, “2-Nitro analogues of adenosine and 1-deazaadenosine: synthesis and binding studies at the adenosine A1, A2A and A3 receptor subtypes” (Bioorg Med Chem Lett, 2000)

Experiments:
[1] = biological target: T1, Adenosine receptor A3 (Homo sapiens, UniProt P0DMS8); experiment: Binding affinity for Adenosine A3 receptor expressed in HEK 293 cells by displacing i[125I]-ABMECA; assay type: cell-based, HEK293
T1 sequence (P0DMS8 whole entry): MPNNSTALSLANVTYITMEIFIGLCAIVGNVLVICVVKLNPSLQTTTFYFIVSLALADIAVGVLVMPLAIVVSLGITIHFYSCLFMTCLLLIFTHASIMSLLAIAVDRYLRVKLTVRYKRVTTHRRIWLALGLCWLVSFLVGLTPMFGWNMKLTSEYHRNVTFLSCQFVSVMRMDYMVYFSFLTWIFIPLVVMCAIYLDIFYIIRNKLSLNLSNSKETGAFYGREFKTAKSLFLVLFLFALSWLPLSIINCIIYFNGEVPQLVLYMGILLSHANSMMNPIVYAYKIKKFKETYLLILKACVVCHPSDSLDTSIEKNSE

[2] = biological target: Adenosine receptor A2a (Rattus norvegicus) (UniProt P30543); experiment: Binding affinity for adenosine A2A receptor of rat striatal membrane by displacing [3H]ZM-241385
[3] = biological target: T2, Adenosine receptor A1 (Rattus norvegicus, UniProt P25099); experiment: Binding affinity for Adenosine A1 receptor of rat cortical membrane by displacing [3H]DPCPX
T2 sequence (P25099 whole entry): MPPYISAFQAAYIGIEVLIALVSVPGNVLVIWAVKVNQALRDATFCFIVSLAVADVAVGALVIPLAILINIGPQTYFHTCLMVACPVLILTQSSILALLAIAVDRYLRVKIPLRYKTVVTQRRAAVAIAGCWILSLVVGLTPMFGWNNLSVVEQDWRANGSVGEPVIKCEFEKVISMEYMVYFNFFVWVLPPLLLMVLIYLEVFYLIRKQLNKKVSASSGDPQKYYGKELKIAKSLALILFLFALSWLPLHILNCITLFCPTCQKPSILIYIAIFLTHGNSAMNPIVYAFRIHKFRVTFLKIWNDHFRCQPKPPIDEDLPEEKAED

[4] = biological target: Adenosine receptor A2a (Rattus norvegicus, UniProt P30543); experiment: Binding affinity for adenosine A2A receptor of rat striatal membrane by displacing [3H]-ZM 241385; design: species or system Striatum
Adenosine receptor A2a, sequence (P30543 whole entry): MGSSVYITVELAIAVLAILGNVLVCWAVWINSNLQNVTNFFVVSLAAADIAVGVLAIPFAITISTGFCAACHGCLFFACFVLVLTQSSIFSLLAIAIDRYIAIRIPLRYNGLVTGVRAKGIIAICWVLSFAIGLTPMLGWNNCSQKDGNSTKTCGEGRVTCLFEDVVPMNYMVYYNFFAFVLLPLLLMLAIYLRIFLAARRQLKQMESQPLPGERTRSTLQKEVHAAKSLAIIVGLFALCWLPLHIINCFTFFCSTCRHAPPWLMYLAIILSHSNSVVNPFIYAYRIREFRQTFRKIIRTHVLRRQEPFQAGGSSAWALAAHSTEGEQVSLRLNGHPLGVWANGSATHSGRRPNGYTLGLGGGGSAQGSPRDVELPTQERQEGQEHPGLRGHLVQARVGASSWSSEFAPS

Adenosine receptor A2a (Rattus norvegicus), sequence (P30543 whole entry): as above

| Ki [1] [nM] | Displacement [2] [%] | Ki [3] [nM] | Ki [4] [nM] | SMILES |
| --- | --- | --- | --- | --- |
| 35.8 | 9 | 1160 |  | CONc1nc([N+](=O)[O-])nc2c1ncn2[C@@H]1O[C@H](CO)[C@@H](O)[C@H]1O |
| 9.8 |  | 110 | 208 | O=[N+]([O-])c1cc(NCc2cccc(I)c2)c2ncn([C@@H]3O[C@H](CO)[C@@H](O)[C@H]3O)c2n1 |
| 202 |  | 344 | 286 | Nc1nc([N+](=O)[O-])nc2c1ncn2[C@@H]1O[C@H](CO)[C@@H](O)[C@H]1O |
| 163 | 20 |  |  | O=[N+]([O-])c1nc(NCc2ccccc2)c2ncn([C@@H]3O[C@H](CO)[C@@H](O)[C@H]3O)c2n1 |
| 222 |  | 47.1 | 3510 | O=[N+]([O-])c1nc(NC2CCCC2)c2ncn([C@@H]3O[C@H](CO)[C@@H](O)[C@H]3O)c2n1 |
| 12 |  | 138 | 1440 | O=[N+]([O-])c1nc(NCc2cccc(I)c2)c2ncn([C@@H]3O[C@H](CO)[C@@H](O)[C@H]3O)c2n1 |
| 216 |  | 646 | 437 | Nc1cc([N+](=O)[O-])nc2c1ncn2[C@@H]1O[C@H](CO)[C@@H](O)[C@H]1O |
| 340 | 52 | 52.6 |  | O=[N+]([O-])c1cc(NC2CCCC2)c2ncn([C@@H]3O[C@H](CO)[C@@H](O)[C@H]3O)c2n1 |
